As usually defined, the IC50 is the midpoint of a concentration-inhibition curve.

Active and inactive are the calls of the source. The rule behind the calls is not given here.

Chain of Induced myeloid leukemia cell differentiation protein Mcl-1 (Homo sapiens) (Q07820 whole entry, looked up): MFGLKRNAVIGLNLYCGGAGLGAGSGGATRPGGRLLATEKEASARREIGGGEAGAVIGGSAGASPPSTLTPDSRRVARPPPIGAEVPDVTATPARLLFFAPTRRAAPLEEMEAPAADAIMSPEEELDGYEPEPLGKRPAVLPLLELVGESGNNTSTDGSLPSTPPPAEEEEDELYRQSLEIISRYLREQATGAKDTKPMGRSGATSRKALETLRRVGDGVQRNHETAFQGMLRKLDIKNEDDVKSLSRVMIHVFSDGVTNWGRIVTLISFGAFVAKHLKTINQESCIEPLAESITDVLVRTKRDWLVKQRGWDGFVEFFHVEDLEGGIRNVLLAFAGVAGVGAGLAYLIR

The assay addresses Induced myeloid leukemia cell differentiation protein Mcl-1 (Homo sapiens) (UniProt Q07820). Kind of assay: blockers of Bid binding to Mcl-1 – biochemical, TR-FRET, dose response (AID 1418). As to conditions: Mcl-1/Bid peptide binding, TR-FRET (europium/Dy647), 2 hr. (In TR-FRET formats the signal depends on donor and acceptor labels being close together.)
Take `C#CCOCCOCCOCCNc1nc(N2CCN(C(=O)[C@H](CCCCN)n3cc(C(N)CC(C)C)nn3)CC2)nc(N2CCN(C(=O)[C@H](CCC(=O)O)n3cc(C(N)[C@H](C)CC)nn3)CC2)n1` (some centres undefined): the IC50 is 22.2 µM.

Regarding `Cc1cccc(N=C2NC(=O)/C(=C/C=C/c3ccco3)S2)c1C`, the IC50 is > 54 µM (inactive).

As to `Cn1c(=O)c2c(nc(Cc3ccc(N)cc3)n2C)n(C)c1=O`, the IC50 was > 54 µM (inactive). As for `Oc1c(C(c2ccc(Cl)cc2)N2CCCC2)cc(Cl)c2cccnc12` (centres undefined), the figure is 1.16 µM.

As for `O=C(O)c1ccc(NS(=O)(=O)c2cccc3nsnc23)cc1`, the IC50 was > 54 µM (inactive).

With `O=C1NC(=O)N(c2ccc(F)cc2)C(=O)/C1=C/c1ccc2c(c1)CCCN2Cc1ccccc1`, the IC50 is 0.79 µM. Regarding `O=C(ONc1ccc(N=NC(=O)c2ccccc2O)cc1)c1ccccc1`, the IC50 entry was “inactive”.

As for `CC1(C)CC(=O)C2=C(C1)OC(N)=C(C#N)C2c1cccc(OC(=O)c2ccco2)c1` (centres undefined), the IC50 was > 54 µM (inactive).

Take `Cc1cc(NC2C3CC4CC(C3)CC2C4)n2nnnc2n1` (centres undefined): the IC50 is > 54 µM (inactive). As for `CCSC1=NC2(CCCCC2)Nc2sc3c(c21)CCCC3`, the figure is 0.44 µM; as for `O=C(/C=C\Nc1ccc(S(=O)(=O)Nc2ncccn2)cc1)c1cccc2ccccc12`, > 54 µM (inactive); as for `COc1ccc(C2SCC(=O)N2CCCN(C)C)cc1` (centres undefined), > 54 µM (inactive).

With `c1coc(-c2nc3c4c5c(sc4ncn3n2)CCCC5)c1`, the IC50 was > 54 µM (inactive). In the case of `O=C(O)c1ccccc1NS(=O)(=O)c1ccc(NNC(=S)Nc2ccc(OC(F)F)cc2)c([N+](=O)[O-])c1`, the IC50 was 0.62 µM.

`O=C(Nc1ccc(F)cc1)N1CCCN(c2ccc(C(F)(F)F)cn2)CC1`: the IC50 was > 54 µM (inactive).

`Clc1ccc(OCCN2CCCCC2)c(Cl)c1`: the IC50 was > 54 µM (inactive). For `Cc1csc2ncnc(N3CCN(C(=S)Nc4ccc(F)cc4F)CC3)c12`, the IC50 was > 54 µM (inactive).

Regarding `COC(=O)c1ccc(=O)c2nc3/c(=C/O)c(O)cc(=O)c3[nH]c12`, the IC50 is 3.23 µM.

For `Cc1nc2sc(C(c3cccs3)N3CCOCC3)c(O)n2n1` (centres undefined), the IC50 was > 54 µM (inactive). As for `COc1ccc(Cl)cc1C(Nc1cccnc1)c1ccc2cccnc2c1O` (centres undefined), the figure is 0.62 µM; as for `COc1ccc(-n2c(=O)cc(N3CCOCC3)[nH]c2=O)cc1`, > 54 µM (inactive); as for `CCOC(=O)c1c(NC(=O)CN(C)C)sc(C(=O)N(CC)CC)c1C`, > 54 µM (inactive). Regarding `CCc1nnc(NS(=O)(=O)c2ccc(NC(=S)NC(=O)/C=C/c3ccc(C(C)C)cc3)cc2)s1`, the IC50 is 3.99 µM. As for `O=C(O)C[C@@H]1C(=O)O[C@@H]2C(COC(=O)c3cc(O)c(O)c(O)c3)O[C@@H](OC(=O)c3cc(O)c(O)c(O)c3)[C@@H](OC(=O)c3cc(O)c(O)c4c3[C@H]1[C@H](O)C(=O)O4)[C@H]2OC(=O)c1cc(O)c(O)c(O)c1` (some centres undefined), the figure is 0.95 µM.

On to `CCc1cc(C(c2ccc(F)cc2)N2CCOCC2)c(NC(=O)c2ccccc2)s1` (centres undefined), for which the IC50 is > 54 µM (inactive). The value for `COc1ccc(-c2nc3ccccc3c(=O)n2CCOc2cccc(C)c2C)cc1` was > 54 µM (inactive); that for `Cc1ccc(CNc2nc(C)nc3sc4c(c23)CCC4)cc1` was > 54 µM (inactive); that for `Cc1csc(NC(=O)C2CCN(S(=O)(=O)c3cccs3)CC2)n1` was > 54 µM (inactive). For the compound `C=CCOC(=O)/C=C/C(=O)NC(N)=O`, the IC50 is > 54 µM (inactive). Regarding `CC(/C=C1\SC(=S)N(CCCC(=O)Nc2ccc(C(=O)O)c(O)c2)C1=O)=C\c1ccccc1`, the IC50 is 3.49 µM.

In the case of `CCN(CC)S(=O)(=O)c1ccc(NC(=O)Nc2cccc(C(F)(F)F)c2)cc1`, the IC50 is > 54 µM (inactive).

With `COc1ccc2[nH]c3c(c2c1)CCn1c-3nc2sc(C(=O)Nc3ccccc3)c(C)c2c1=O`, the IC50 was 1.89 µM. The value for `C#CCOCCOCCOCCNc1nc(N2CCN(C(=O)[C@H](CCCCN)n3cc(C(N)[C@H](C)CC)nn3)CC2)nc(N2CCN(C(=O)[C@H](CCC(=O)O)n3cc(C(N)[C@H](C)CC)nn3)CC2)n1` (some centres undefined) was 1.93 µM; that for `COc1ccc(-c2cc(C(F)(F)F)nc(N3CCOCC3)n2)cc1OC` was > 54 µM (inactive); that for `O=C(CSCc1ccccc1)NCCCN1CCOCC1` was > 54 µM (inactive). The value for `Fc1ccc(NC(=S)N/N=C/c2cccc(Br)c2)c(F)c1` was > 54 µM (inactive).

As for `Cc1cc(-c2nc3c4c5c(sc4[nH]c(=O)n3n2)CCC5)c(C)o1`, the IC50 is > 54 µM (inactive). In the case of `O=C1CSC(c2ccncc2)N1Cc1ccccc1` (centres undefined), the IC50 was > 54 µM (inactive). As for `Cc1ccccc1NC(=O)c1c(C)[nH]c(=S)c(C#N)c1-c1ccc(Cl)cc1`, the figure is > 54 µM (inactive); as for `O=[N+]([O-])c1ccc(/C=N/NC(=S)Nc2ccc(Cl)cc2Cl)s1`, 1.48 µM; as for `CC1=NOC(=O)/C1=C\c1ccc(-c2ccc(Cl)cc2Cl)o1`, 1.94 µM.

With `CC(C)c1[nH]nc2c1C(c1cccnc1)C(C#N)=C(N)O2` (centres undefined), the IC50 was > 54 µM (inactive). The value for `CCOc1cc(N2CCOCC2)c(OCC)cc1NC(=O)CCS(=O)(=O)c1ccc(Cl)cc1` was > 54 µM (inactive); that for `C=C(C(=O)c1ccccc1)C(C(=C)C(=O)c1ccccc1)c1ccc(OC)cc1` was > 54 µM (inactive); that for `Cc1cc(N/N=C/c2ccc(O)c(C)c2O)nc(-c2ccccc2O)n1` was 9.06 µM. The value for `Cc1ccc(-n2c(C)n[nH]c2=S)cc1C` was > 54 µM (inactive); that for `O=C(COc1cccnc1[N+](=O)[O-])c1ccc(Cl)s1` was > 54 µM (inactive). The value for `C=CCn1cc(/C=N/NC(=O)COc2cccc3cccnc23)c2ccccc21` was 3.38 µM; that for `C=C(C=O)CC1CC(O)[C@]2(C)OC3CC4OC5C[C@]6(C)O[C@]7(C)CCC8OC9C[C@]%10(C)OC%11C(C)=CC(=O)OC%11CC%10OC9C[C@@H](C)C8OC7CC6O[C@]5(C)CC5OC5C4OC3CC2O1` (some centres undefined) was > 54 µM (inactive).

As to `C=C1C(=O)[C@@]23[C@H](O)C[C@@H]4C(C)(C)CC[C@H](O)[C@]4(C)[C@@H]2C[C@H](O)[C@@H]1[C@H]3O`, the IC50 was > 54 µM (inactive). As for `O=C(O)CCC(=O)NCCC1=c2ccccc2=N/C1=C\c1c(O)n(Cc2ccc(F)cc2)c(=S)[nH]c1=O`, the figure is 2.51 µM. The value for `COc1ccccc1NC(=O)CSc1nnnn1-c1ccc2c(c1)OCO2` was > 54 µM (inactive); that for `c1ccc(Oc2nc3ccccc3n3cccc23)cc1` was > 54 µM (inactive); that for `CCOC(=O)c1c(-c2ccco2)csc1NC(=O)CSc1nnc(N)s1` was > 54 µM (inactive). Take `C[C@@H](C(=O)Nc1nc2ccc(F)cc2s1)N1C(=O)C2CC=CCC2C1=O` (some centres undefined): the IC50 is > 54 µM (inactive). As for `N#Cc1cc(-c2ccccc2)nc(Oc2ccccc2)n1`, the figure is > 54 µM (inactive). On to `O=C(O)CCN1C(=O)S/C(=C\c2cccnc2)C1=O`, for which the IC50 is > 54 µM (inactive). As for `CN(C)c1ccc(-c2nn3c(-c4ccc(Cl)cc4Cl)nnc3s2)cc1`, the figure is 0.77 µM.

As to `CN(NC(=O)COc1ccccc1)c1ccccc1`, the IC50 was > 54 µM (inactive).

These data come from PubChem BioAssay AID1418 (Emory University Molecular Libraries Screening Center, 2008).
